The record followed here is the supplement of paper PMC11208160.

The nature of this data set: recombinant UMI read abundance after kanamycin selection (control-corrected) (log10(CPM+1)); higher = more efficient recombination; extreme values may be limits of the assay; sequences stand for … in AGTGCAGAGAAAATCGGCCAGTTTTCTCTGCCTGCAGTCCGCATGCCGTGGGACCCCTTGGGTTCTAACCTGTTGCCTAGATTTATGCAGCGGACTGCCTTTCTCCCAAAGTGATAAACCGG…AGGTTGGTTTCACT; site = the 11-nt donor. An outline of the steps:
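Each donor and donor-binding-loop pair was tracked by a 12-nt UMI on a plasmid carrying a promoterless kanamycin gene. With a second plasmid supplying a fixed target and T7-inducible IS621 bridge recombinase, the pool was plated in Escherichia coli on IPTG (0.07 mM) plus kanamycin or unselected. Sequencing of recombinant UMIs across the donor–target junction gave counts expressed as log10(CPM+1) after replicate averaging and control-derived scaling.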
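Note: IS621 bridge recombinase in Escherichia coli cells against a fixed T5 target plasmid.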

On to “AGCAGATCATGGACCGGTTTTCCCGGTAATCCGTATTTGAA (site AGCAGATCTTT)”, for which the “recombinant UMI read abundance (log10)” value stood at 1.77.
As for “AGCAGTACATGGACCGGTTTTCCCGGTAATCCGTATTTGCG (site AGCAGTACTCG)”, the figure is 1.25; as for “AGCAGTGCATGGACCGGTTTTCCCGGTAATCCGTATTTGAG (site AGCAGTGCTCT)”, 1.93; as for “AGCATTACATGGACCGGTTTTCCCGGTAATCCGTATTTGAT (site AGCATTACTAT)”, 1.01.
With “AGCATTCCATGGACCGGTTTTCCCGGTAATCCGTATTTGTC (site AGCATTCCTGA)” the figure was 0; with “AGCCAAGCATGGACCGGTTTTCCCGGTAATCCGTATTTGTT (site AGCCAAGCTAA)”, 1.09.
“AGCCAAGCATGGACCGGTTTTCCCGGTAATCCGTATTTGTT (site AGCCCAGCTAA)”: the “recombinant UMI read abundance (log10)” value amounted to 0.0145.
With “AGCCAAGCATGGACCGGTTTTCCCGGTAATCCGTATTTGTT (site AGCCGAGCTAA)” the figure was 0.00778; with “AGCCAAGCATGGACCGGTTTTCCCGGTAATCCGTATTTGTT (site AGCCTAGCTAA)”, 0.0061; with “AGCCCAGCATGGACCGGTTTTCCCGGTAATCCGTATTTGGG (site AGCACAGCTCC)”, 0.0163.
With “AGCCCAGCATGGACCGGTTTTCCCGGTAATCCGTATTTGGG (site AGCCCAGCTCC)” the figure was 0.35.
Regarding “AGCCCAGCATGGACCGGTTTTCCCGGTAATCCGTATTTGGG (site AGCGCAGCTCC)”, the “recombinant UMI read abundance (log10)” value was 0.0133.
As to “AGCCCAGCATGGACCGGTTTTCCCGGTAATCCGTATTTGGG (site AGCTCAGCTCC)”, the “recombinant UMI read abundance (log10)” value was found to be 0.0182.
Turning to “AGCCTAACATGGACCGGTTTTCCCGGTAATCCGTATTTGCT (site AGCCTAACTAG)”, the “recombinant UMI read abundance (log10)” value was found to be 0.
With “AGCCTACCATGGACCGGTTTTCCCGGTAATCCGTATTTGTT (site AGCCTAACTAA)” the figure was 0; with “AGCCTACCATGGACCGGTTTTCCCGGTAATCCGTATTTGTT (site AGCCTACCTAA)”, 0.0133.
With “AGCCTACCATGGACCGGTTTTCCCGGTAATCCGTATTTGTT (site AGCCTAGCTAA)” the figure was 0.00248; with “AGCCTACCATGGACCGGTTTTCCCGGTAATCCGTATTTGTT (site AGCCTATCTAA)”, 0.00614.
As for “AGCCTAGCATGGACCGGTTTTCCCGGTAATCCGTATTTGAT (site AGCCTAGCTAA)”, the figure is 0.0122.
In the case of “AGCCTAGCATGGACCGGTTTTCCCGGTAATCCGTATTTGAT (site AGCCTAGCTAC)”, the “recombinant UMI read abundance (log10)” value was found to be 0.0164.
With “AGCCTAGCATGGACCGGTTTTCCCGGTAATCCGTATTTGAT (site AGCCTAGCTAG)” the figure was 0; with “AGCCTAGCATGGACCGGTTTTCCCGGTAATCCGTATTTGAT (site AGCCTAGCTAT)”, 0.0107.
With “AGCCTAGCATGGACCGGTTTTCCCGGTAATCCGTATTTGTA (site AGCCTAGCTAA)” the figure was 0.0136; with “AGCCTAGCATGGACCGGTTTTCCCGGTAATCCGTATTTGTA (site AGCCTAGCTCA)”, 0.0462; with “AGCCTAGCATGGACCGGTTTTCCCGGTAATCCGTATTTGTA (site AGCCTAGCTGA)”, 0.
As to “AGCCTAGCATGGACCGGTTTTCCCGGTAATCCGTATTTGTA (site AGCCTAGCTTA)”, the “recombinant UMI read abundance (log10)” value is 0.245.
As for “AGCCTAGCATGGACCGGTTTTCCCGGTAATCCGTATTTGTC (site AGCCTAGCTAA)”, the figure is 0.199.
“AGCCTAGCATGGACCGGTTTTCCCGGTAATCCGTATTTGTC (site AGCCTAGCTCA)”: the “recombinant UMI read abundance (log10)” value was found to be 0.0312.
With “AGCCTAGCATGGACCGGTTTTCCCGGTAATCCGTATTTGTC (site AGCCTAGCTGA)” the figure was 0.
With “AGCCTAGCATGGACCGGTTTTCCCGGTAATCCGTATTTGTC (site AGCCTAGCTTA)” the figure was 0.0185.
“AGCCTATCATGGACCGGTTTTCCCGGTAATCCGTATTTGAC (site AGCCTATCTGT)”: the “recombinant UMI read abundance (log10)” value stood at 0.685.
With “AGCCTATCATGGACCGGTTTTCCCGGTAATCCGTATTTGAC (site AGCCTCTCTGT)” the figure was 0.
With “AGCCTATCATGGACCGGTTTTCCCGGTAATCCGTATTTGAC (site AGCCTGTCTGT)” the figure was 0; with “AGCCTATCATGGACCGGTTTTCCCGGTAATCCGTATTTGAC (site AGCCTTTCTGT)”, 0; with “AGCCTTTCATGGACCGGTTTTCCCGGTAATCCGTATTTGAT (site AGCCTTTCTAT)”, 0.
As for “AGCCTTTCATGGACCGGTTTTCCCGGTAATCCGTATTTGAT (site AGCCTTTCTCT)”, the “recombinant UMI read abundance (log10)” value was determined as 0.
“AGCCTTTCATGGACCGGTTTTCCCGGTAATCCGTATTTGAT (site AGCCTTTCTGT)”: the “recombinant UMI read abundance (log10)” value is 0.
With “AGCCTTTCATGGACCGGTTTTCCCGGTAATCCGTATTTGAT (site AGCCTTTCTTT)”, the “recombinant UMI read abundance (log10)” value was found to be 0.
With “AGCGCGACATGGACCGGTTTTCCCGGTAATCCGTATTTGTG (site AGCGCGACTCA)”, the “recombinant UMI read abundance (log10)” value is 0.829.
As for “AGCGCTCCATGGACCGGTTTTCCCGGTAATCCGTATTTGCC (site AGCGCTCCTGG)”, the figure is 0; as for “AGCGGCTCATGGACCGGTTTTCCCGGTAATCCGTATTTGGG (site AGCGGCTCTCC)”, 0.204.
“AGCTAAGCATGGACCGGTTTTCCCGGTAATCCGTATTTGGG (site AGCTAAGCTCC)”: the “recombinant UMI read abundance (log10)” value worked out at 0.00725.
With “AGCTAAGCATGGACCGGTTTTCCCGGTAATCCGTATTTGGG (site AGCTCAGCTCC)” the figure was 0.0056.
As for “AGCTAAGCATGGACCGGTTTTCCCGGTAATCCGTATTTGGG (site AGCTGAGCTCC)”, the figure is 0.0394; as for “AGCTAAGCATGGACCGGTTTTCCCGGTAATCCGTATTTGGG (site AGCTTAGCTCC)”, 0.117; as for “AGCTACGCATGGACCGGTTTTCCCGGTAATCCGTATTTGAA (site AGCTACGCTTT)”, 1.7.
As for “AGCTAGCCATGGACCGGTTTTCCCGGTAATCCGTATTTGGA (site AGCTAGCCTTC)”, the figure is 0.00495; as for “AGCTAGGCATGGACCGGTTTTCCCGGTAATCCGTATTTGGT (site AGCTAGGCTAC)”, 0.659; as for “AGCTAGGCATGGACCGGTTTTCCCGGTAATCCGTATTTGGT (site CGCTAGGCTAC)”, 0.00222.
Take “AGCTAGGCATGGACCGGTTTTCCCGGTAATCCGTATTTGGT (site GGCTAGGCTAC)”: the “recombinant UMI read abundance (log10)” value is 0.0154.
With “AGCTAGGCATGGACCGGTTTTCCCGGTAATCCGTATTTGGT (site TGCTAGGCTAC)” the figure was 0.0219; with “AGCTCACCATGGACCGGTTTTCCCGGTAATCCGTATTTGGG (site AGCTCAACTCC)”, 0.0175.
For “AGCTCACCATGGACCGGTTTTCCCGGTAATCCGTATTTGGG (site AGCTCACCTCC)”, the “recombinant UMI read abundance (log10)” value came out at 0.0182.
With “AGCTCACCATGGACCGGTTTTCCCGGTAATCCGTATTTGGG (site AGCTCAGCTCC)” the figure was 0.0165; with “AGCTCACCATGGACCGGTTTTCCCGGTAATCCGTATTTGGG (site AGCTCATCTCC)”, 0; with “AGCTCAGCATGGACCGGTTTTCCCGGTAATCCGTATTTGAG (site AGCTCAGCTCA)”, 0.0132.
In the case of “AGCTCAGCATGGACCGGTTTTCCCGGTAATCCGTATTTGAG (site AGCTCAGCTCC)”, the “recombinant UMI read abundance (log10)” value is 0.026.
With “AGCTCAGCATGGACCGGTTTTCCCGGTAATCCGTATTTGAG (site AGCTCAGCTCG)” the figure was 0.
“AGCTCAGCATGGACCGGTTTTCCCGGTAATCCGTATTTGAG (site AGCTCAGCTCT)”: the “recombinant UMI read abundance (log10)” value was 1.33.
In the case of “AGCTCAGCATGGACCGGTTTTCCCGGTAATCCGTATTTGGA (site AGCTCAGCTAC)”, the “recombinant UMI read abundance (log10)” value amounted to 0.00904.
With “AGCTCAGCATGGACCGGTTTTCCCGGTAATCCGTATTTGGA (site AGCTCAGCTCC)” the figure was 0.264; with “AGCTCAGCATGGACCGGTTTTCCCGGTAATCCGTATTTGGA (site AGCTCAGCTGC)”, 0; with “AGCTCAGCATGGACCGGTTTTCCCGGTAATCCGTATTTGGA (site AGCTCAGCTTC)”, 1.03.
As to “AGCTCAGCATGGACCGGTTTTCCCGGTAATCCGTATTTGTG (site AGCTCAGCTCA)”, the “recombinant UMI read abundance (log10)” value stood at 0.506.
For “AGCTCAGCATGGACCGGTTTTCCCGGTAATCCGTATTTGTG (site AGCTCAGCTCC)”, the “recombinant UMI read abundance (log10)” value worked out at 0.00732.
As for “AGCTCAGCATGGACCGGTTTTCCCGGTAATCCGTATTTGTG (site AGCTCAGCTCG)”, the figure is 0; as for “AGCTCAGCATGGACCGGTTTTCCCGGTAATCCGTATTTGTG (site AGCTCAGCTCT)”, 0.362; as for “AGCTCGACATGGACCGGTTTTCCCGGTAATCCGTATTTGGC (site AGCTCGACTGC)”, 1.31.
